In the OligoGym collection:
HELM strings list units from the 5' end as sugar, base in round brackets, then linkage (d deoxyribose, r ribose, m 2'-O-methyl, p phosphodiester). Strings are as the collection lists them, not checked against the first reports. ss, as = sense and antisense strand; [lna] = locked nucleic acid (LNA); [fl2r] = 2'-fluoro

Conditions: siRNA
Also: test system not given here.

Substance	target mRNA knockdown [%]
RNA1{r(G)p.r(C)p.r(A)p.r(G)p.r(C)p.r(A)p.r(C)p.r(G)p.r(A)p.r(C)p.r(U)p.r(U)p.r(C)p.r(U)p.r(U)p.r(C)p.r(A)p.r(A)p.r(G)p.r(T)p.r(T)}|RNA2{d(C)p.d(U)p.d(U)p.d(G)p.d(A)p.d(A)p.d(G)p.d(A)p.d(A)p.d(G)p.d(U)p.d(C)p.d(G)p.d(U)p.d(G)p.d(C)p.d(U)p.d(G)p.d(C)p.r(T)p.r(T)}$$$RNA1{StrandType:ss}|RNA2{StrandType:as}$	0
RNA1{[fl2r](A)p.r(G)p.[fl2r](C)p.r(C)p.[fl2r](U)p.r(C)p.[fl2r](C)p.r(A)p.[fl2r](A)p.r(A)p.[fl2r](C)p.r(U)p.[fl2r](C)p.r(C)p.[fl2r](U)p.r(A)p.[fl2r](G)p.r(C)p.[fl2r](U)p.r(T)p.r(T)}|RNA2{r(A)p.r(G)p.r(C)p.r(U)p.r(A)p.r(G)p.r(G)p.r(A)p.r(G)p.r(U)p.r(U)p.r(U)p.r(G)p.r(G)p.r(A)p.r(G)p.r(G)p.r(C)p.r(U)p.r(T)p.r(T)}$$$RNA1{StrandType:ss}|RNA2{StrandType:as}$	16
RNA1{r(G)p.r(A)p.r(C)p.r(G)p.r(U)p.r(A)p.r(A)p.r(A)p.r(C)p.r(G)p.r(G)p.r(C)p.r(C)p.r(A)p.r(C)p.r(A)p.r(A)p.r(G)p.r(U)p.[lna](T)p.[lna](C)}|RNA2{r(A)p.r(C)p.r(U)p.r(U)p.r(G)p.r(U)p.r(G)p.r(G)p.r(C)p.r(C)p.r(G)p.r(U)p.r(U)p.r(U)p.r(A)p.r(C)p.r(G)p.r(U)p.r(C)p.r(G)p.r(C)}$$$RNA1{StrandType:ss}|RNA2{StrandType:as}$	87.4
RNA1{r(A)p.r(G)p.r(A)p.r(A)p.r(A)p.r(C)p.r(G)p.m(C)p.r(A)p.r(G)p.m(U)p.m(A)p.r(A)p.r(U)p.r(C)p.r(C)p.r(G)p.r(G)p.r(A)p.r(T)p.r(T)}|RNA2{r(U)p.r(C)p.r(C)p.r(G)p.r(G)p.r(A)p.r(U)p.m(U)p.r(A)p.r(C)p.m(U)p.r(G)p.r(C)p.r(G)p.r(U)p.r(U)p.r(U)p.r(C)p.r(U)p.r(T)p.r(T)}$$$RNA1{StrandType:ss}|RNA2{StrandType:as}$	78
RNA1{r(A)p.r(U)p.r(C)p.r(G)p.r(C)p.[fl2r](U)p.r(G)p.r(C)p.[fl2r](U)p.r(C)p.r(C)p.[fl2r](U)p.r(C)p.r(C)p.r(U)p.r(C)p.r(C)p.r(U)p.r(C)p.r(T)p.r(T)}|RNA2{r(G)p.r(A)p.r(G)p.r(G)p.r(A)p.r(G)p.r(G)p.r(A)p.r(G)p.r(G)p.r(A)p.r(G)p.[fl2r](C)p.r(A)p.r(G)p.r(C)p.r(G)p.r(A)p.r(U)p.r(T)p.r(T)}$$$RNA1{StrandType:ss}|RNA2{StrandType:as}$	69
RNA1{r(G)p.r(A)p.r(G)p.r(G)p.r(A)p.r(U)p.r(G)p.r(G)p.r(A)p.r(U)p.r(U)p.r(C)p.r(G)p.r(A)p.r(C)p.r(U)p.r(U)p.r(A)p.r(G)p.r(T)p.r(T)}|RNA2{r(C)p.m(U)p.r(A)p.r(A)p.r(G)p.r(U)p.r(C)p.r(G)p.r(A)p.r(A)p.r(U)p.r(C)p.r(C)p.r(A)p.r(U)p.r(C)p.r(C)p.r(U)p.r(C)p.r(T)p.r(T)}$$$RNA1{StrandType:ss}|RNA2{StrandType:as}$	94
RNA1{m(A)p.r(A)p.m(A)p.r(C)p.m(C)p.r(U)p.m(C)p.r(A)p.m(G)p.r(C)p.m(C)p.r(C)p.m(U)p.r(A)p.m(A)p.r(C)p.m(G)p.r(G)p.m(U)p.r(T)p.r(T)}|RNA2{r(A)p.m(C)p.m(C)p.r(G)p.r(U)p.r(U)p.r(A)p.r(G)p.r(G)p.r(G)p.m(C)p.r(U)p.r(G)p.r(A)p.r(G)p.r(G)p.r(U)p.r(U)p.r(U)p.r(T)p.r(T)}$$$RNA1{StrandType:ss}|RNA2{StrandType:as}$	28
RNA1{r(U)p.r(C)p.m(U)p.r(A)p.m(C)p.r(A)p.r(C)p.r(C)p.r(G)p.m(C)p.r(G)p.r(C)p.m(C)p.r(C)p.r(C)p.r(C)p.r(C)p.r(U)p.r(C)p.r(T)p.r(T)}|RNA2{r(G)p.r(A)p.r(G)p.r(G)p.r(G)p.r(G)p.r(G)p.r(G)p.r(C)p.r(G)p.r(C)p.r(G)p.r(G)p.m(U)p.r(G)p.m(U)p.r(A)p.r(G)p.r(A)p.r(T)p.r(T)}$$$RNA1{StrandType:ss}|RNA2{StrandType:as}$	73
RNA1{r(G)p.r(A)p.r(A)p.r(G)p.r(A)p.r(G)p.r(C)p.r(C)p.m(U)p.m(A)p.m(C)p.r(A)p.m(C)p.r(A)p.r(A)p.r(C)p.r(C)p.r(C)p.r(U)p.r(T)p.r(T)}|RNA2{r(A)p.r(G)p.r(G)p.r(G)p.r(U)p.m(U)p.r(G)p.m(U)p.r(G)p.m(U)p.r(A)p.r(G)p.r(G)p.r(C)p.r(U)p.r(C)p.r(U)p.r(U)p.r(C)p.r(T)p.r(T)}$$$RNA1{StrandType:ss}|RNA2{StrandType:as}$	74
RNA1{r(C)p.r(U)p.[fl2r](A)p.[fl2r](A)p.r(G)p.r(C)p.r(C)p.r(U)p.r(G)p.[fl2r](U)p.r(U)p.r(U)p.r(C)p.r(U)p.r(U)p.r(C)p.r(C)p.r(U)p.r(C)p.r(T)p.r(T)}|RNA2{r(G)p.r(A)p.r(G)p.r(G)p.r(A)p.r(A)p.r(G)p.r(A)p.r(A)p.r(A)p.r(C)p.r(A)p.r(G)p.r(G)p.r(C)p.r(U)p.[fl2r](U)p.r(A)p.r(G)p.r(T)p.r(T)}$$$RNA1{StrandType:ss}|RNA2{StrandType:as}$	85
RNA1{m(G)p.r(A)p.m(C)p.r(A)p.m(A)p.r(G)p.m(G)p.r(G)p.m(A)p.r(A)p.m(G)p.r(G)p.m(U)p.r(U)p.m(A)p.r(G)p.m(C)p.r(C)p.m(U)p.r(T)p.r(T)}|RNA2{r(A)p.r(G)p.r(G)p.r(C)p.r(U)p.r(A)p.r(A)p.r(C)p.r(C)p.r(U)p.r(U)p.r(C)p.r(C)p.r(C)p.r(U)p.r(U)p.r(G)p.r(U)p.r(C)p.r(T)p.r(T)}$$$RNA1{StrandType:ss}|RNA2{StrandType:as}$	34
RNA1{r(U)p.r(C)p.r(C)p.r(U)p.r(C)p.r(G)p.r(U)p.r(C)p.[fl2r](G)p.r(U)p.r(C)p.[fl2r](U)p.[fl2r](G)p.r(U)p.r(U)p.r(C)p.[fl2r](U)p.r(A)p.r(A)p.r(T)p.r(T)}|RNA2{r(U)p.[fl2r](U)p.r(A)p.r(G)p.r(A)p.r(A)p.[fl2r](C)p.r(A)p.r(G)p.r(A)p.r(C)p.r(G)p.r(A)p.r(C)p.r(G)p.r(A)p.r(G)p.r(G)p.r(A)p.r(T)p.r(T)}$$$RNA1{StrandType:ss}|RNA2{StrandType:as}$	77
RNA1{r(C)p.r(U)p.r(C)p.r(U)p.r(C)p.r(C)p.[fl2r](U)p.r(A)p.r(C)p.r(C)p.r(U)p.[fl2r](U)p.r(C)p.r(U)p.r(C)p.r(C)p.[fl2r](U)p.r(C)p.r(U)p.r(T)p.r(T)}|RNA2{r(A)p.r(G)p.r(A)p.r(G)p.r(G)p.r(A)p.r(G)p.r(A)p.r(A)p.r(G)p.r(G)p.[fl2r](U)p.r(A)p.r(G)p.r(G)p.r(A)p.r(G)p.r(A)p.r(G)p.r(T)p.r(T)}$$$RNA1{StrandType:ss}|RNA2{StrandType:as}$	73
RNA1{r(A)p.[fl2r](C)p.r(A)p.[fl2r](U)p.r(A)p.[fl2r](G)p.r(A)p.r(G)p.r(G)p.r(A)p.r(A)p.r(G)p.r(A)p.r(C)p.r(G)p.r(C)p.r(G)p.r(G)p.r(A)p.r(T)p.r(T)}|RNA2{r(U)p.r(C)p.r(C)p.r(G)p.r(C)p.r(G)p.r(U)p.r(C)p.r(U)p.r(U)p.r(C)p.r(C)p.r(U)p.r(C)p.[fl2r](U)p.r(A)p.[fl2r](U)p.r(G)p.r(U)p.r(T)p.r(T)}$$$RNA1{StrandType:ss}|RNA2{StrandType:as}$	86
